Reference: patent US9029389B2 (Institut Pasteur Korea, priority 2011, dated 2015)

Target: T1, Human 5-lipoxygenase (Homo sapiens, UniProt P09917)
T1 construct: purchased Cayman 60402; host or cells: insect cells
T1 sequence (P09917 1-674): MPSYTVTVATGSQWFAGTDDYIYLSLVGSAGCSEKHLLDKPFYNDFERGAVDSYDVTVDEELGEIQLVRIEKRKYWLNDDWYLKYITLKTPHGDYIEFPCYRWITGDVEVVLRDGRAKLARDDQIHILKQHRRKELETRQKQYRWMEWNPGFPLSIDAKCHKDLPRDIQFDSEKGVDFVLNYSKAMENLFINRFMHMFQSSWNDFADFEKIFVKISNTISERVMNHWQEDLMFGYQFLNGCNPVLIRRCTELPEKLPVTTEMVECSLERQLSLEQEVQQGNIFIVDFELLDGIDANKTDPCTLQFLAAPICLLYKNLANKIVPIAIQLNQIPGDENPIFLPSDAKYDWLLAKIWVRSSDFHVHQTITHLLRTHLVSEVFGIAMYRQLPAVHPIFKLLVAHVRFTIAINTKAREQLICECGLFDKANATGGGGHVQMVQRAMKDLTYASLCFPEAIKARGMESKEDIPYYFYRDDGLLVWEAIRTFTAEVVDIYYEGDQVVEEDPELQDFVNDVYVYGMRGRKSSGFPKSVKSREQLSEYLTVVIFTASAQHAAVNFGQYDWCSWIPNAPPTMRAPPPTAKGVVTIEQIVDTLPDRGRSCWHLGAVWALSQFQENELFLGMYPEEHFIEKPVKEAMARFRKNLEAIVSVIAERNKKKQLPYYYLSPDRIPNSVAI
Assay: Activity of compounds against 5-LO enzyme (LTB4 measurement and/or fluorescence method)
Format: biochemical
Settings: for inhibition at 10 µM: 5-LO, single concentration of 10 uM in duplicate; for IC50: 6 or 11 point dose response in duplicate
Outline: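 Insect-cell human 5-LO preincubated 15 min at RT with compound (pH 7.4, 2 mM CaCl2, 0.1 mM ATP, 1% DMSO), then 3 uM arachidonic acid for 5 min at 37 °C; LTB4 quantified by EIA and/or LC/MS/MS. Alternatively, fluorescence of 5-HpETE via H2DCFDA, 100 uM ATP, 3 uM arachidonic acid, 5 min, RT; single 10 uM screen then 6- or 11-point IC50.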

Compound | inhibition at 10 µM [%] | IC50 [µM]
CCc1nc2ccc(Cl)cn2c1C(=O)NCc1ccn(-c2ccc(C(F)(F)F)cc2)n1 [compound 151, 6-Chloro-2-ethyl-N-((1-(4-(trifluoromethyl)phenyl)-1H-pyrazol-3-yl)methyl)imidazo[1,2-a]pyridine-3-carboxamide] | < 40 | 
CCc1nc2cc(Cl)ccn2c1C(=O)NCc1ccn(-c2ccc(C(F)(F)F)cc2)n1 [compound 152, 7-Chloro-2-ethyl-N-((1-(4-(trifluoromethyl)phenyl)-1H-pyrazol-3-yl)methyl)imidazo[1,2-a]pyridine-3-carboxamide] | 40 to 69 | 
CCc1nc2ccc(Cl)cn2c1C(=O)NCc1ccn(-c2ccc(F)cc2)n1 [compound 153, 6-Chloro-2-ethyl-N-((1-(4-fluorophenyl)-1H-pyrazol-3-yl)methyl)imidazo[1,2-a]pyridine-3-carboxamide] | < 40 | 
CCc1nc2cc(Cl)ccn2c1C(=O)NCc1ccn(-c2ccc(F)cc2)n1 [compound 154, 7-Chloro-2-ethyl-N-((1-(4-fluorophenyl)-1H-pyrazol-3-yl)methyl)imidazo[1,2-a]pyridine-3-carboxamide] | < 40 | 
CCc1nc2ccc(Cl)cn2c1C(=O)N(C)Cc1ccc(Oc2ccc(F)cc2)cc1 [compound 164, 6-Chloro-2-ethyl-N-(4-(4-fluorophenoxy)benzyl)-N-methylimidazo[1,2-a]pyridine-3-carboxamide] | > 69 | 1 to 20
CCc1nc2ccc(Cl)cn2c1C(=O)NCc1ccc(N2CCC(Oc3ccc(Cl)cc3)CC2)cc1 [compound 166, 6-Chloro-N-(4-(4-(4-chlorophenoxy)piperidin-1-yl)benzyl)-2-ethylimidazo[1,2-a]pyridine-3-carboxamide] | 40 to 69 | 
CCc1nc2cc(Cl)ccn2c1C(=O)NCc1ccc(N2CCC(Oc3ccc(Cl)cc3)CC2)cc1 [compound 167, 7-Chloro-N-(4-(4-(4-chlorophenoxy)piperidin-1-yl)benzyl)-2-ethylimidazo[1,2-a]pyridine-3-carboxamide] | 40 to 69 | 
CCc1nc2ccc(Cl)cn2c1C(=O)NCc1ccc(N2CCC(Oc3ccc(C(F)(F)F)cc3)CC2)cc1 [compound 168, 6-Chloro-2-ethyl-N-(4-(4-(4-(trifluoromethyl)phenoxy)piperidin-1-yl)benzyl)imidazo[1,2-a]pyridine-3-carboxamide] | 40 to 69 | 
CCc1nc2cc(Cl)ccn2c1C(=O)NCc1ccc(N2CCC(Oc3ccc(C(F)(F)F)cc3)CC2)cc1 [compound 169, 7-Chloro-2-ethyl-N-(4-(4-(4-(trifluoromethyl)phenoxy)piperidin-1-yl)benzyl)imidazo[1,2-a]pyridine-3-carboxamide] | 40 to 69 | 
CCc1nc2ccc(Cl)cn2c1C(=O)NCc1ccc(OCc2ccc(OC(F)(F)F)cc2)cc1 [compound 170] | < 40 | 
CCc1nc2cc(Cl)ccn2c1C(=O)NCc1ccc(OCc2ccc(OC(F)(F)F)cc2)cc1 [compound 171] | < 40 | 
CCc1nc2ccc(Cl)cn2c1C(=O)NCc1ccc(OCc2ccc(F)cc2)cc1 [compound 172, 6-Chloro-2-ethyl-N-(4-(4-fluorobenzyloxy)benzyl)imidazo[1,2-a]pyridine-3-carboxamide] | < 40 | 
CCc1nc2cc(Cl)ccn2c1C(=O)NCc1ccc(OCc2ccc(F)cc2)cc1 [compound 173, 7-Chloro-2-ethyl-N-(4-(4-fluorobenzyloxy)benzyl)imidazo[1,2-a]pyridine-3-carboxamide] | 40 to 69 | 
CCc1nc2ccc(Cl)cn2c1C(=O)NCc1ccc(Nc2ccc(OC(F)(F)F)cc2)cc1 [compound 174, 6-Chloro-2-ethyl-N-(4-(4-(trifluoromethoxy)phenylamino)benzyl)imidazo[1,2-a]pyridine-3-carboxamide] | > 69 | 1 to 20

The remaining lines, values ahead:

inhibition at 10 µM [%] | IC50 [µM] | Compound
> 69 | 1 to 20 | CCc1nc2cc(Cl)ccn2c1C(=O)NCc1ccc(Nc2ccc(OC(F)(F)F)cc2)cc1 [compound 175, 7-Chloro-2-ethyl-N-(4-(4-(trifluoromethoxy)phenylamino)benzyl)imidazo[1,2-a]pyridine-3-carboxamide]
40 to 69 |  | CCc1nc2ccc(Br)cn2c1C(=O)NCc1ccc(OC(F)(F)F)cc1 [compound 176, 6-Bromo-2-ethyl-N-(4-(trifluoromethoxy)benzyl)imidazo[1,2-a]pyridine-3-carboxamide]
< 40 |  | CCc1nc2ccc(Br)cn2c1C(=O)NCc1ccc(Oc2ccc(F)cc2)cc1 [compound 177, 6-Bromo-2-ethyl-N-(4-(4-fluorophenoxy)benzyl)imidazo[1,2-a]pyridine-3-carboxamide]
< 40 |  | CCc1nc2cc(Cl)c(Cl)cn2c1C(=O)NCc1ccc(OC(F)(F)F)cc1 [compound 178, 6,7-Dichloro-2-ethyl-N-(4-(trifluoromethoxy)benzyl)imidazo[1,2-a]pyridine-3-carboxamide]
40 to 69 |  | CCc1nc2cc(Cl)c(Cl)cn2c1C(=O)NCc1ccc(N2CCN(Cc3ccc(F)cc3)CC2)cc1 [compound 179, 6,7-Dichloro-2-ethyl-N-(4-(4-(4-fluorobenzyl)piperazin-1-yl)benzyl)imidazo1,2-al pyridine-3-carboxamide]
< 40 |  | CCc1nc2cc(Cl)c(Cl)cn2c1C(=O)NCc1ccc(N2CCN(c3ccc(F)cc3)CC2)cc1 [compound 180, 6,7-Dichloro-2-ethyl-N-(4-(4-(4-fluorophenyl)piperazin-1-yl)benzyl)imidazo[1,2-a]pyridine-3-carboxamide]
40 to 69 |  | CCc1nc2ccc(Cl)cn2c1C(=O)NCc1ccc2[nH]c(-c3ccc(OC(F)(F)F)cc3)nc2c1 [compound 185, 6-Chloro-2-ethyl-N-((2-(4-(trifluoromethoxy)phenyl)-1H-benzo[d]imidazol-5-yl)methyl)imidazo[1,2-a]pyridine-3-carboxamide]
40 to 69 |  | CCc1nc2cc(Cl)ccn2c1C(=O)NCc1ccc2[nH]c(-c3ccc(OC(F)(F)F)cc3)nc2c1 [compound 186, 7-Chloro-2-ethyl-N-((2-(4-(trifluoromethoxy)phenyl)-1H-benzo[d]imidazol-5-yl)methyl)imidazo[1,2-a]pyridine-3-carboxamide]
> 69 | 1 to 20 | CCc1nc2cc(Cl)ccn2c1C(=O)NCc1ccc(Oc2ccc(OC(F)(F)F)cc2)nc1 [compound 190, 7-Chloro-2-ethyl-N-((6-(4-(trifluoromethoxy)phenoxy)pyridin-3-yl)methy)imidazo[1,2-a]pyridine-3-carboxamide]
40 to 69 |  | CCc1nc2ccc(Cl)cn2c1C(=O)NCc1ccc(N2CCCCCC2)cc1 [compound 192, N-(4-(Azepan-1-yl)benzyl)-6-chloro-2-ethylimidazo[1,2-a]pyridine-3-carboxamide]
> 69 | > 20 | CCc1nc2cc(Cl)ccn2c1C(=O)NCc1ccc(N2CCCCCC2)cc1 [compound 193, N-(4-(Azepan-1-yl)benzyl)-7-chloro-2-ethylimidazo[1,2-a]pyridine-3-carboxamide]
> 69 | > 20 | CCc1nc2cc(Cl)ccn2c1C(=O)NCc1ccc(N2CC=CCC2)cc1 [compound 194, 7-Chloro-N-(4-(5,6-dihydropyridin-1(2H)-yl)benzyl)-2-ethylimidazo[1,2-a]pyridine-3-carboxamide]
